Reference: ChEMBL document CHEMBL3734659, “Identification of tris-(phenylalkyl)amines as new selective h5-HT2Breceptor antagonists” (Medchemcomm, 2015)

What was measured:
[1] = molecular target: T1, 5-hydroxytryptamine receptor 2C (Homo sapiens, UniProt P28335); experiment: Antagonist activity at human recombinant 5-HT2C receptor expressed in Flp-In HEK cells in the presence of agonist preincubated for 10 mins by FLIPR based calcium mobilization assay; type: functional, cell-based, HEK293
T1 sequence (P28335 whole entry): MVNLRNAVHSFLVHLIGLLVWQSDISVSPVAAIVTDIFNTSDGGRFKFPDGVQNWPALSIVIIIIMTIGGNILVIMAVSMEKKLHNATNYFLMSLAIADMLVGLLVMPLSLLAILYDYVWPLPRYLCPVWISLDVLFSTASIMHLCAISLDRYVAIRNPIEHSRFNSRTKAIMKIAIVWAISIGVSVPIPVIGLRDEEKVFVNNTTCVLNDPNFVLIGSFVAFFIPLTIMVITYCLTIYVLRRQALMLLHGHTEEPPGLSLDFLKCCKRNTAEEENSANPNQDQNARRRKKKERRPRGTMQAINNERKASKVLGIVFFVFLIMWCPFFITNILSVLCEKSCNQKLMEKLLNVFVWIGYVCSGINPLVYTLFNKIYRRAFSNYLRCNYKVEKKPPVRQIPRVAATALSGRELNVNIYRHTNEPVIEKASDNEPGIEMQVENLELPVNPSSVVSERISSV

[2] = molecular target: 5-hydroxytryptamine receptor 2B (Homo sapiens, UniProt P41595); experiment: Displacement of [3H]LSD from human recombinant 5-HT2B receptor stably expressed in HEK cell membrane after 90 mins by scintillation counting method; type: cell membranes, HEK293
5-hydroxytryptamine receptor 2B, sequence (P41595 whole entry): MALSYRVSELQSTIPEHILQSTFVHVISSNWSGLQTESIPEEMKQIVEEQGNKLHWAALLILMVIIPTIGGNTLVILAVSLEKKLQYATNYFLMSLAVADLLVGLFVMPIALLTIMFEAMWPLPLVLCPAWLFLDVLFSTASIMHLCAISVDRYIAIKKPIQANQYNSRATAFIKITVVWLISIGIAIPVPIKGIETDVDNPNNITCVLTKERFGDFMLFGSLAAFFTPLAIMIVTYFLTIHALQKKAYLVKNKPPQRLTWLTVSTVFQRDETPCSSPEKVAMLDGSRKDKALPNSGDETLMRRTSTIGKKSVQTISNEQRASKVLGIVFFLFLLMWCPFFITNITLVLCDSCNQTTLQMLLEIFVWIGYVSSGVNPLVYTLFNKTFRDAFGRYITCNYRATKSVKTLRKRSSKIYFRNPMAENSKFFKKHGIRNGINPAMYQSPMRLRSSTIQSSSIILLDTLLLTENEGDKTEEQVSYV

COc1ccc(CCN(CCCc2ccccc2)CCc2ccc3c(c2)OCO3)cc1OC
IC50 [1]: 12.6 µM | Ki [2]: 0.026 µM
